The structures appear in SMILES notation.

What is called EC50 is the concentration giving half of the maximal effect. Low values mean an effect from little substance, high ones a need for much substance.

The target in the test is T1, 5-hydroxytryptamine receptor 1A (Homo sapiens, UniProt P08908).
T1 sequence (P08908 whole entry): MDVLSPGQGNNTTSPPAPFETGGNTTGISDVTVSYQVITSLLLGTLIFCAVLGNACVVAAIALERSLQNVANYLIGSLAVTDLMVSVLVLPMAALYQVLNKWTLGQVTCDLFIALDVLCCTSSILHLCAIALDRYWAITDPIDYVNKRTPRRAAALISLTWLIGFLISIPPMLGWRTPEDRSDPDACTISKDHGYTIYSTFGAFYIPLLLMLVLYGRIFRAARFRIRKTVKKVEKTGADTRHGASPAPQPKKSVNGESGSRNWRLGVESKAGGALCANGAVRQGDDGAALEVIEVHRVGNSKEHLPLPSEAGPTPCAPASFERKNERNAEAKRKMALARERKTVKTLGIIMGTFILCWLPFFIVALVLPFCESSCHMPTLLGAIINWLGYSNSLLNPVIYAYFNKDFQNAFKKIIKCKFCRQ
Description: serotonin 1A receptor activation, dose response (AID 718). As to conditions: pH 7.4; 23 °C.
Molecule `Cn1cc(C(Cc2ccccc2)N=O)c2ccccc21` (stereo not drawn) [1-(1-methyl-3-indolyl)-2-phenylethanone oxime] showed an EC50 of 50 µM.

Consider `CCOC(=O)C1C(C)=NC(=O)NC1c1ccc(OCC(=O)Nc2ccccc2)c(OC)c1` (stereo not drawn) [SMR000093032], for which a half-maximal response (EC50) required 50 µM.

`CN1CCN(C(N=O)c2nonc2N)CC1` (stereo not drawn) displayed an EC50 of 50 µM.
